Assay results published in publication PMC12656546, “Enterohepatic Recirculation-Mediated Reabsorption of Aristolochic Acid I: Revealed by Toxicokinetics and Metabolite Identification in Rats” (Toxics, 2025).

Test: Stability of AAI in rat plasma samples (QC samples)
Assay type: in vitro ADME
Conditions: n = 3
Method: A full validation of the bioanalytical method for the quantitative analysis of AAI in rat plasma was performed in inherence to the ICH M10 guideline. Selectivity, accuracy and precision, matrix effects, calibration curve and range, dilution integrity and stability were fully validated. The analyzed QCs included a lower limit of quantitation (LLOQ) sample, low QC (LQC), medium QC (MQC) and high QC (HQC). QCs of four concentration levels (LLOQ: 1 ng/mL; LQC: 3 ng/mL; MQC: 400 ng/mL; HQC: 800 ng/mL) were prepared by spiking AAI with blank plasma collected from 6 rats.
Stability evaluation was carried out by analyzing LQCs and HQCs after storage under different conditions. Freeze–thaw stability was assessed after 3 cycles of freezing and thawing. Short-term stability was tested by keeping the LQCs and HQCs on the bench top at room temperature for the same duration as the study samples. Stability of the analyte in processed samples was tested by placing the processed samples in an autosampler for 16 h. Long-term stability was assessed by storing LQCs and HQCs at −20 °C for 15 days. The mean concentration at each QC level should be within ±15% of the nominal concentration.

[1] = Freeze–thaw stability (3 cycles), rat plasma, nominal conc. 3 ng/mL
[2] = Freeze–thaw stability (3 cycles), rat plasma, nominal conc. 800 ng/mL
[3] = Long-term stability (−20 °C, 15 days), rat plasma, nominal conc. 3 ng/mL
[4] = Long-term stability (−20 °C, 15 days), rat plasma, nominal conc. 800 ng/mL
[5] = Post-processing stability (processed samples in autosampler 16 h), nominal conc. 3 ng/mL
[6] = Post-processing stability (processed samples in autosampler 16 h), nominal conc. 800 ng/mL
[7] = Short-term stability (bench top, room temperature), rat plasma, nominal conc. 3 ng/mL
[8] = Short-term stability (bench top, room temperature), rat plasma, nominal conc. 800 ng/mL

## COc1cccc2c1cc([N+](=O)[O-])c1c(C(=O)O)cc3c(c12)OCO3 [AAI, Aristolochic acid I]
[1]
  Accuracy (%Dev): 4.10 %Dev
  Mean Calculated Conc.: 3.12 ng/mL
[2]
  Accuracy (%Dev): 1.30 %Dev
  Mean Calculated Conc.: 810.42 ng/mL
[3]
  Accuracy (%Dev): 6.54 %Dev
  Mean Calculated Conc.: 3.20 ng/mL
[4]
  Accuracy (%Dev): 4.71 %Dev
  Mean Calculated Conc.: 837.66 ng/mL
[5]
  Accuracy (%Dev): −10.53 %Dev
  Mean Calculated Conc.: 2.68 ng/mL
[6]
  Accuracy (%Dev): −11.83 %Dev
  Mean Calculated Conc.: 705.33 ng/mL
[7]
  Accuracy (%Dev): 3.46 %Dev
  Mean Calculated Conc.: 3.10 ng/mL
[8]
  Accuracy (%Dev): −2.99 %Dev
  Mean Calculated Conc.: 776.07 ng/mL
